ChEMBL document CHEMBL3407419, “Multiple binding modes of isothiocyanates that inhibit macrophage migration inhibitory factor” (Eur J Med Chem, 2015)
pIC50: −log10 of the molar value.

Key:
[1] = target: T1, Macrophage migration inhibitory factor (Homo sapiens, UniProt P14174); experiment: Inhibition of macrophage migration inhibitory factor tautomerase activity in human Jurkat T cells using L-dopachrome methyl ester as substrate incubated for 30 mins prior to substrate addition measured for 2 mins by spectrophotometric analysis; assay type: cell-based
T1 sequence (P14174 whole entry): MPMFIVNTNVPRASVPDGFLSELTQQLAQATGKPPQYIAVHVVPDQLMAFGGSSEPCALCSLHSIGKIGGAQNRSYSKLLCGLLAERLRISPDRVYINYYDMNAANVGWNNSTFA

[2] = target: T1, Macrophage migration inhibitory factor; experiment: (§1) Inhibition of human recombinant macrophage migration inhibitory factor tautomerase activity expressed in Escherichia coli DH5alpha using L-dopachrome methyl ester as substrate incubated for 5 mins prior to substrate addition measured for 2 mins by spectrophotometric analysis
[3] = target: T1, Macrophage migration inhibitory factor; experiment: Inhibition of macrophage migration inhibitory factor tautomerase activity in human Jurkat T cells using L-dopachrome methyl ester as substrate incubated for 30 mins prior to substrate addition measured 24 months post determination of initial value by spectrophotometric analysis; assay type: cell-based
[4] = target: T1, Macrophage migration inhibitory factor; experiment: as §1, with “24 months post determination of initial value” for “for 2 mins”

Row | Structure (SMILES) | pIC50 [1] | pIC50 [2] | pIC50 [3] | pIC50 [4]
1 | FC(F)(F)c1ccc(CCN=C=S)cc1 | 5.15 | 4.40 |  | 
2 | S=C=NCCc1ccc(Cl)cc1 | 5.80 | 5.96 |  | 
3 | S=C=NCCCCc1ccccc1 [PHENYLBUTYL ISOTHIOCYANATE] | 5.72 |  |  | 
4 | O=C=NCCc1ccccc1 [PHENETHYL ISOCYANATE] | < 4.00 |  |  | 
5 | Oc1cccc(CCN=C=S)c1 | 5.11 | 4.21 |  | 
6 | CCC(N=C=S)c1ccc(O)cc1 (stereo unspecified) | < 4.00 |  |  | 
7 | NS(=O)(=O)c1ccc(CN=C=S)cc1 | 6.30 | 6.12 |  | 
8 | CCC(N=C=S)c1ccccc1 (stereo unspecified) | 4.68 |  |  | 
9 | FC(F)(F)c1cccc(CCN=C=S)c1 | 4.98 |  |  | 
10 | C[S+]([O-])CCCCN=C=S (stereo unspecified) [SULFORAPHANE] | 5.66 | 4.96 |  | 
11 | S=C=Nc1ccccc1 [PHENYLISOTHIOCYANATE] | 4.96 |  |  | 
12 | N#CSCc1ccccc1 [BENZYL THIOCYANATE] | < 4.00 |  |  | 
13 | CCC(N=C=S)c1ccc(OC)cc1 (stereo unspecified) | 5.92 |  |  | 
14 | COc1ccc(CN=C=S)cc1 | 5.41 | 6.15 |  | 
15 | Oc1ccc(CCN=C=S)cc1O | 5.40 | 4.54 |  | 
16 | S=C=NC(c1ccccc1)c1ccccc1 | < 4.00 |  |  | 
17 | S=C=NCc1ccc2c(c1)OCO2 | 5.30 | 5.54 |  | 
18 | C=CCN=C=S [ALLYL ISOTHIOCYANATE] | 6.60 | 5.96 |  | 
19 | Fc1ccc(CN=C=S)cc1 | 6.27 |  | 5.02 | 4.51
20 | Oc1ccc(C(N=C=S)c2ccc(O)cc2)cc1 | < 4.00 |  |  | 
21 | COc1ccccc1OCCN=C=S | 5.74 |  |  | 
22 | S=C=NCCCCCCc1ccccc1 [PHENYLHEXYL ISOTHIOCYANATE] | 5.38 |  |  | 
23 | S=C=NCCCc1ccccc1 | 5.85 |  |  | 
24 | CC(CN=C=S)c1ccc(O)cc1 (stereo unspecified) | 5.32 | 4.55 |  | 
25 | C[C@@H](N=C=S)c1ccccc1 | 5.96 |  |  | 
26 | FC(F)(F)c1cccc(CN=C=S)c1 | 5.23 |  |  | 
27 | CC(N=C=S)c1ccccc1 (stereo unspecified) [1-PHENYLETHYL ISOTHIOCYANATE] | 5.55 | 6.00 |  | 
28 | Oc1ccc(CCN=C=S)cc1 | 5.92 | 5.44 |  | 
29 | OCCCCCCN=C=S | 5.29 |  |  | 
30 | Fc1cccc(CN=C=S)c1 | 5.82 |  | 4.96 | 4.27
